Experimental data reported in US11945806B2, “Stabilization of amyloidogenic immunoglobulin light chains” (The Scripps Research Institute, priority 2019, dated 2024).

target: WIL-FL (Homo sapiens, UniProt P01721); experiment: Unlabeled LC Protease Sensitivity Assay (proteinase K); format: biochemical; details: small molecule 10 μM, WIL-FL 5 μM, proteinase K 50 nM, 2 hours at 37° C.
Method in brief: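 Compound at 10 μM (1% DMSO) is mixed with 5 μM WIL-FL and 50 nM proteinase K in PBS pH 7.4/0.02% Pluronic F-127, 37 °C, 2 h, then quenched with PMSF. Remaining protein measured by SEC-UPLC peak area at 280 nm and expressed as fold protection relative to vehicle and no-protease controls.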

Protection (fold protection of LC from protease) | Structure (SMILES)
B (3 ≤ B < 0.6) | CCN(CC)c1ccc2c(C)c(CN3C(=O)CNC3=O)c(=O)oc2c1 [Compound 129, 3-((7-(diethylamino)-4-methyl-2-oxo-2H-chromen-3-yl)methyl)imidazolidine-2,4-dione]
C (C ≥ 0.6) | CCN(CC)c1ccc2c(C)c(CCOC(=O)NCc3cccc(-c4cn[nH]c4)c3)c(=O)oc2c1 [Compound 164, 2-(7-(diethylamino)-4-methyl-2-oxo-2H-chromen-3-yl)ethyl (3-(1H-pyrazol-4-yl)benzyl)carbamate]
A (A < 0.3)) | Cc1cc(=O)oc2cc(C(=O)NCc3ccccn3)ccc12 [Compound 226, 4-methyl-2-oxo-N-(pyridin-2-ylmethyl)-2H-chromene-7-carboxamide]
A (A < 0.3)) | CCN(CCCc1ccccc1)c1ccc2c(C)cc(=O)oc2c1 [Compound 31, 7-(ethyl(3-phenylpropyl)amino)-4-methyl-2H-chromen-2-one]
B (3 ≤ B < 0.6) | CCN(CC)c1ccc2c(C)c(CCN3C(=O)NC4(CCNC4)C3=O)c(=O)oc2c1 (stereo not shown) [Compound 179, 3-(2-(7-(diethylamino)-4-methyl-2-oxo-2H-chromen-3-yl)ethyl)-1,3,7-triazaspiro[4.4]nonane-2,4-dione]
A (A < 0.3)) | Cc1cc(=O)oc2cc(N(CCCF)CCCF)ccc12 [Compound 250, 7-(bis(3-fluoropropyl)amino)-4-methyl-2H-chromen-2-one]
B (3 ≤ B < 0.6) | CCN(CC)c1ccc2c(C)c(CCOC(=O)NCc3ccn[nH]3)c(=O)oc2c1 [Compound 92, 2-(7-(diethylamino)-4-methyl-2-oxo-2H-chromen-3-yl)ethyl ((1H-pyrazol-5-yl)methyl)carbamate]
A (A < 0.3)) | Cc1cc(=O)oc2cc(C(=O)NCCc3ccc(O)cc3)ccc12 [Compound 232, N-(4-hydroxyphenethyl)-4-methyl-2-oxo-2H-chromene-7-carboxamide]
A (A < 0.3)) | CCN(CC)c1ccc2cc(C#N)c(=N)oc2c1 [Compound 26, 7-(diethylamino)-2-imino-2H-chromene-3-carbonitrile]
B (3 ≤ B < 0.6) | CCN(CC)c1ccc2c(C)c(CCOC(=O)N3CC4(C3)CS(=O)(=O)C4)c(=O)oc2c1 [Compound 110, 2-(7-(diethylamino)-4-methyl-2-oxo-2H-chromen-3-yl)ethyl 2-thia-6-azaspiro[3.3]heptane-6-carboxylate 2,2-dioxide]
B (3 ≤ B < 0.6) | CCN(CC)c1ccc2c(C)c(CCN3C(=O)NC4(CCN(C(=O)c5ccncn5)CC4)C3=O)c(=O)oc2c1 [Compound 208, 3-(2-(7-(diethylamino)-4-methyl-2-oxo-2H-chromen-3-yl)ethyl)-8-(pyrimidine-4-carbonyl)-1,3,8-triazaspiro[4.5]decane-2,4-dione]
A (A < 0.3)) | Cc1cc(=O)oc2cc(N3CCCCC3)ccc12 [Compound 48, 4-methyl-7-(piperidin-1-yl)-2H-chromen-2-one]
A (A < 0.3)) | CCN(CC)c1ccc2c(C)c(CC(=O)NCCCN(C)C)c(=O)oc2c1 [Compound 59, 2-(7-(diethylamino)-4-methyl-2-oxo-2H-chromen-3-yl)-N-(3-(dimethylamino)propyl)acetamide]
C (C ≥ 0.6) | CCN(CC)c1ccc2c(C)c(CCOC(=O)NCc3ccc4nc[nH]c4c3)c(=O)oc2c1 [Compound 142, 2-(7-(diethylamino)-4-methyl-2-oxo-2H-chromen-3-yl)ethyl ((1H-benzo[d]imidazol-6-yl)methyl)carbamate]
A (A < 0.3)) | Cc1cc(=O)oc2cc(C#N)ccc12 [Compound 224, 4-methyl-2-oxo-2H-chromene-7-carbonitrile]
A (A < 0.3)) | CCN(C)c1ccc2c(C)cc(=O)oc2c1 [Compound 268, 7-(ethyl(methyl)amino)-4-methyl-2H-chromen-2-one]
C (C ≥ 0.6) | CCN(CC)c1ccc2c(C)c(CCN3C(=O)NC4(CCN(C(=O)c5ncc[nH]5)C4)C3=O)c(=O)oc2c1 (stereo not shown) [Compound 181, 3-(2-(7-(diethylamino)-4-methyl-2-oxo-2H-chromen-3-yl)ethyl)-7-(1H-imidazole-2-carbonyl)-1,3,7-triazaspiro[4.4]nonane-2,4-dione]
B (3 ≤ B < 0.6) | CCN(CC)c1ccc2c(C)c(CCOC(=O)NCCCN(C)C)c(=O)oc2c1 [Compound 133, 2-(7-(diethylamino)-4-methyl-2-oxo-2H-chromen-3-yl)ethyl (3-(dimethylamino)propyl)carbamate]
A (A < 0.3)) | C=CCN(CC=C)c1ccc2c(C)cc(=O)oc2c1 [Compound 231, 7-(diallylamino)-4-methyl-2H-chromen-2-one]

Protection (fold protection of LC from protease) | Structure (SMILES)
C (C ≥ 0.6) | CCN(CC)c1ccc2c(C)c(CCN3C(=O)NC4(CCN(c5ncnc6[nH]cnc56)CC4)C3=O)c(=O)oc2c1 [Compound 188, 3-(2-(7-(diethylamino)-4-methyl-2-oxo-2H-chromen-3-yl)ethyl)-8-(9H-purin-6-yl)-1,3,8-triazaspiro[4.5]decane-2,4-dione]
A (A < 0.3)) | CCN(CC)c1ccc(NC(=O)CN2C(=O)CNC2=O)cc1 [Compound 150, N-(4-(diethylamino)phenyl)-2-(2,5-dioxoimidazolidin-1-yl)acetamide]
B (3 ≤ B < 0.6) | C#CCN(CC#C)c1ccc2c(C)cc(=O)oc2c1 [Compound 248, 7-(di(prop-2-yn-1-yl)amino)-4-methyl-2H-chromen-2-one]
A (A < 0.3)) | Cc1cc(=O)oc2cc(NCc3ccccc3)ccc12 [Compound 28, 7-(benzylamino)-4-methyl-2H-chromen-2-one]
C (C ≥ 0.6) | CCN(CC)c1ccc2c(C)c(CCOC(=O)NCc3cccc(-c4ncccn4)c3)c(=O)oc2c1 [Compound 155, 2-(7-(diethylamino)-4-methyl-2-oxo-2H-chromen-3-yl)ethyl (3-(pyrimidin-2-yl)benzyl)carbamate]
A (A < 0.3)) | C#CCN(CCC)c1ccc2c(C)cc(=O)oc2c1 [Compound 260, 4-methyl-7-(prop-2-yn-1-yl(propyl)amino)-2H-chromen-2-one]
B (3 ≤ B < 0.6) | CCN(CC)c1ccc2c(C)c(CCOC(=O)N3CCC(Cc4cccnc4)CC3)c(=O)oc2c1 [Compound 118, 2-(7-(diethylamino)-4-methyl-2-oxo-2H-chromen-3-yl)ethyl 4-(pyridin-3-ylmethyl)piperidine-1-carboxylate]
A (A < 0.3)) | C#CCN(CC1CC1)c1ccc2c(C)cc(=O)oc2c1 [Compound 262, 7-((cyclopropylmethyl)(prop-2-yn-1-yl)amino)-4-methyl-2H-chromen-2-one]
A (A < 0.3)) | CCN(CC)c1ccc2c(C)c(CCC(=O)NCCc3cccc(F)c3)c(=O)oc2c1 [Compound 72]
B (3 ≤ B < 0.6) | CCN(CC)c1ccc2c(C)c(CCOC(=O)NCc3ccccn3)c(=O)oc2c1 [Compound 85, 2-(7-(diethylamino)-4-methyl-2-oxo-2H-chromen-3-yl)ethyl (pyridin-2-ylmethyl)carbamate]
B (3 ≤ B < 0.6) | CCN(CC)c1ccc2c(C)c(CCN3C(=O)NC4(CCN(C(=O)c5cnccn5)CC4)C3=O)c(=O)oc2c1 [Compound 212, 3-(2-(7-(diethylamino)-4-methyl-2-oxo-2H-chromen-3-yl)ethyl)-8-(pyrazine-2-carbonyl)-1,3,8-triazaspiro[4.5]decane-2,4-dione]
A (A < 0.3)) | CCN(CC)c1ccc2c(C)c(CCOC(=O)NCCc3ccccc3)c(=O)oc2c1 [Compound 80, 2-(7-(diethylamino)-4-methyl-2-oxo-2H-chromen-3-yl)ethyl phenethylcarbamate]
C (C ≥ 0.6) | CCN(CC)c1ccc2c(C)c(CCN3C(=O)NC4(CCN(C(=O)c5cnc[nH]5)C4)C3=O)c(=O)oc2c1 (stereo not shown) [Compound 180, 3-(2-(7-(diethylamino)-4-methyl-2-oxo-2H-chromen-3-yl)ethyl)-7-(1H-imidazole-4-carbonyl)-1,3,7-triazaspiro[4.4]nonane-2,4-dione]
A (A < 0.3)) | CCN(CC)c1ccc2c(C)c(CCOC(=O)NCc3ccc(=O)[nH]c3)c(=O)oc2c1 [Compound 138, 2-(7-(diethylamino)-4-methyl-2-oxo-2H-chromen-3-yl)ethyl ((6-oxo-1,6-dihydropyridin-3-yl)methyl)carbamate]
A (A < 0.3)) | CCN(CC)c1ccc2c(C)c(CCC(=O)NCCc3ccc(F)cc3)c(=O)oc2c1 [Compound 73]
A (A < 0.3)) | Cc1cc(=O)oc2cc(C(=O)NCc3ccc(O)cc3)ccc12 [Compound 230, N-(4-hydroxybenzyl)-4-methyl-2-oxo-2H-chromene-7-carboxamide]
A (A < 0.3)) | Cc1cc(=O)oc2cc(NCCC(F)(F)F)ccc12 [Compound 265, 4-methyl-7-((3,3,3-trifluoropropyl)amino)-2H-chromen-2-one]
A (A < 0.3)) | CCN(CC)c1ccc2c(C)c(CCNC(=O)NCc3cccc4ccccc34)c(=O)oc2c1 [Compound 285, 1-(2-(7-(diethylamino)-4-methyl-2-oxo-2H-chromen-3-yl)ethyl)-3-(naphthalen-1-ylmethyl)urea]
